Several values for one entry are separate records, joined by “and”; a condition that tells them apart may be missing. Equal values may be shown once.
Assays:
[1] = system: PR expression; experiment: ER agonism: PR expression in Ishikawa cells by western blot; format: cell-based
Method: Fig. 8 Evidence of ER agonism of AZ’6421 and compound 8 in vitro and in vivo. a 100 nM compound or 10 nM estradiol (E2) were incubated with Ishikawa cells for 48 h and lysates measured for PR expression by western blot. b Normalised rat uterine weight shown as % change from respective vehicle control after 4 days dosing. c Representative H&E stained images taken from sections of uterine horn after 4 days of dosing. d Total plasma exposure of AZ’6421 and its metabolite 8 following dosing of 100 mg/kg BID or 30 mg/kg BID AZ’6421. Plasma samples were taken 4 hr after the 4th dose, at the same time as the uterus was weighed and sectioned for H&E staining.
(§1) Cells were seeded into 12-well tissue culture-treated plates at 0.5 x 10^6 cells/well in phenol red-free RPMI containing 5% (v/v) charcoal-stripped FBS (F6765, Sigma) and left to adhere overnight. In experiments to detect agonism or for SILAC experiments, FBS was double stripped using activated charcoal. Cells were treated with compound or 0.1% DMSO vehicle control for the times indicated prior to being lysed in Pierce RIPA buffer (Thermo Scientific), supplemented with protease and phosphatase inhibitors. Expression levels of proteins were determined by standard western blotting techniques (BioRad 4%-12% Bis-Tris gels). Antibodies were diluted in 5% milk-PBS-Tween and protein levels were detected using Pierce WestDura chemiluminescent reagents followed by visualisation and quantification on a Syngene ChemiGenius Imager. Where blots were quantified, protein levels were normalised to beta-actin or vinculin control and expressed as % of vehicle control.

[2] = system: uterus; experiment: Immature female rat model, uterine weight and histology; format: in vivo
Description: Some endocrine therapies, such as tamoxifen, have been reported to display weak agonistic activity in the endometrium due to altered cofactor recruitment and subsequent activation of gene transcription. We therefore sought to test whether AZ’6421 was a complete antagonist or could act as a partial agonist, in both in vitro and in vivo models. […] Plasma samples were taken 4 hr after the 4th dose, at the same time as the uterus was weighed and sectioned for H&E staining. To further explore whether AZ’6421 may be acting as an agonist in vivo, morphological changes of the uterine were examined: uterine horns were formalin-fixed paraffin-embedded, stained with haematoxylin and eosin and then transverse sections of uterus examined.

[3] = molecular target: T1, ERα (Homo sapiens, UniProt P03372); experiment: Western blot analysis of ERα in MCF7 cells (dose response, MG132, VHL ligand and cpd 8 competition); format: cell-based; conditions: MCF7
T1 construct: endogenous in cells; host or cells: MCF7 (also MCF7 engineered to express Cas9)
T1 sequence (P03372 1-595): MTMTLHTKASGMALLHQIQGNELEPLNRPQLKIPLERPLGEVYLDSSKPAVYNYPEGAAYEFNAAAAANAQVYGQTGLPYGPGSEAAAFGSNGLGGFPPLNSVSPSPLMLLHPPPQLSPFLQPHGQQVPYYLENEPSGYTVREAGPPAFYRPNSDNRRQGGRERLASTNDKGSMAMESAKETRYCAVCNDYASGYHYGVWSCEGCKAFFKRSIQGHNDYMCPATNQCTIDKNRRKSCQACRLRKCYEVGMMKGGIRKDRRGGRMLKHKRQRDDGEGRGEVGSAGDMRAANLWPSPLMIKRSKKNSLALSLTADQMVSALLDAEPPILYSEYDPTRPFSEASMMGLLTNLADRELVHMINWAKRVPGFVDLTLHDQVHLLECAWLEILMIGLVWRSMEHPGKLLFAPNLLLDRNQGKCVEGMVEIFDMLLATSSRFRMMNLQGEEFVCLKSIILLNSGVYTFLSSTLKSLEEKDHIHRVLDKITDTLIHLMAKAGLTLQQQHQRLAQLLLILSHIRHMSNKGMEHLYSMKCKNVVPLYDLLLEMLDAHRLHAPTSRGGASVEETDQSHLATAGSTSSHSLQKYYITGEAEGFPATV
Method: Fig. 2 AZ’6421 degrades ERα through a PROTAC mechanism of action. a Immunoblots for ERα and vinculin loading control. MCF7 cells were pre-treated with 10 µM MG132 or DMSO control for 1 h before being exposed to DMSO, AZ’6421, or fulvestrant, at the concentrations indicated, for a further 7 h. A representative immunoblot from two biological replicates is shown. b As in a but cells were pre-treated with 10 µM VHL ligand (Ac-(S,R,S)-AHPC) prior to addition of DMSO, AZ’6421 or fulvestrant. c MCF7 cells expressing BFP-Cas9 were reverse transfected with the crRNA:tracrRNA pool targeting VHL for 72 h prior to treatment with increasing concentrations of AZ’6421 for a further 24 h. Cells were then fixed, stained, and imaged to assess ERα and Cas9 expression. ERα levels in Cas9 positive cells were normalised to unedited cells (0) and ESR1 KO cells (-100). Data points are from three independent experiments, points in bold represent the mean. d Structure of AZ’6421 and the (S)-prolinol epimer, 7. e Concentration-response curves for AZ’6421 and 7. ERα levels in MCF7 cells were assessed using an immunofluorescence endpoint after 24 h exposure to compound. […] Data points are from 5 (AZ'6421) or 2 (Cpd 7) independent experiments with technical duplicates performed for each experiment, bold points represent the mean. All concentration-response curves were plotted using nonlinear regression analysis in GraphPad Prism.
Fig. 6 Assessment of the cause of the in vitro/in vivo disconnect. a CTC174 tumours were disaggregated into single cells, seeded in 6-well plates and dosed with increasing concentrations of AZ’6421 for 24 hours before being lysed. ERα levels were assessed by immunoblotting. ERɑ levels normalised to vinculin and expressed as % DMSO control are shown underneath the immunoblot. b Representative IHC images taken from sections of tumour treated with vehicle control or 100 mg/kg AZ’6421 for 4 days. Sections were stained with an antibody against ERα (Sp1, Ventana). c Schematic of potential sites of metabolism d Free plasma exposure of AZ’6421 and its metabolite 8 following 100 mg/kg dosing of AZ’6421. e Concentration-response curves for AZ’6421 and metabolite 8. ERα levels in MCF7 cells were assessed using an immunofluorescence endpoint after 24 h exposure to compound. […] Points in bold represent the mean. f Effect of metabolite 8 on ERα degradation in CTC174 cells cultured ex vivo. […] MCF7 cells were pre-treated with 10 µM cpd 8 or DMSO control for 1 h before being exposed to DMSO, AZ’6421 or fulvestrant, at the concentrations indicated, for a further 24 h. A representative immunoblot from two biological replicates is shown. TEXT PRINTED IN THE PICTURE: (a) AZ'6421: ERα % of DMSO control: 20.3 (1 nM); ERα % of DMSO control: 12.0 (10 nM); ERα % of DMSO control: 4.1 (30 nM); ERα % of DMSO control: 4.2 (100 nM); ERα % of DMSO control: 3.9 (300 nM); ERα % of DMSO control: 3.6 (1000 nM)
as §1

[4] = molecular target: T1, ERα; experiment: SILAC pulse-chase and mass spectrometry, ERα turnover in MCF7 cells; format: cell-based; conditions: 1 µM
Method: MCF7 cells were grown for a minimum of 2 passages in SILAC media (Pierce, Thermo Scientific) containing ^13C6^15N4 arginine and ^13C6 lysine. The extent of stable isotope incorporation was determined by mass spectrometry. For the assay, cells were plated at 1.2 x 10^6 cells/well into 6-well TC-treated plates in media containing 5% double charcoal stripped FBS^13,C6^15N4 arginine and ^13C6^15N2 lysine for 24 hours. At time 0, the media containing isotopically heavy arginine and lysine was replaced with media containing unlabelled equivalents plus either AZ’6421, fulvestrant or DMSO control. […] Equal concentrations of timecourse lysates were mixed with an internal standard lysate derived from ^[…] lysine labelled MCF7 cells. ER protein was immunoprecipitated overnight at 4 °C with an ER antibody (Rabbit clone SP1, Thermo Scientific) and immobilised onto a U-bottomed Nunc MaxiSorp plate (Thermo Scientific). Wells were sequentially washed with each of the following; RIPA buffer, PBS and water. Samples were digested by addition of 30 μL well sequencing grade trypsin (Promega) in 50 mM ammonium bicarbonate at 37 °C for a minimum of 16 hours. The resultant peptide samples were acidified and analysed by selected reaction monitoring (SRM) mass spectrometry. Protein half-life was determined using the one-phase exponential decay function in GraphPad PRISM where Y = (Y0 - Plateau)*exp(-K*X) + Plateau.

[5] = molecular target: T1, ERα; experiment: Hypoxia studies, ERα degradation in MCF7 cells; format: cell-based; conditions: 100 nM
Method: MCF7 cells were seeded into 12-well tissue culture-treated plates at 0.5x10^6 cells/well in phenol red-free RPMI media containing 5% (volume/volume [v/v]) charcoal-stripped FBS (F6765, Sigma) and left to adhere overnight. The hypoxia-treated plates were transferred to a Thermo Heracell 150 Tri-gas Incubator set at 2% O2 and allowed to equilibrate to the lower oxygen level overnight. Cells were treated with compound or 0.1% DMSO vehicle control for 48 hours prior to being lysed in Pierce RIPA buffer (Thermo Scientific), supplemented with protease and phosphatase inhibitors. Lysis was carried out immediately after removal from the Tri-gas incubator to prevent the rapid degradation of HIF1α on re-exposure to the higher oxygen levels. Protein expression was determined by standard western blotting procedures as described above.

Structure (SMILES) | PR expression (% vs 10 nM E2) ([1]; 100 nM compound, individual replicates) | PR expression in the Ishikawa endometrial cell line ([1]; 100 nM, 48 h) | Uterine weight normalised to body weight (% vehicle) ([2]; 5 mg/kg, individual animals) | uterine epithelium morphology (H&E) ([2]; immature female rat, 4 days dosing) | effect of MG132 pre-treatment on ERα degradation ([3]; 10 µM MG132 1 h, then compound 7 h) | effect of excess acetylated-(S,R,S)-AHPC pre-treatment on ERα degradation ([3]; 10 µM VHL ligand) | % heavy (ERα heavy peptide) ([4]; Time 0, MCF7) | % heavy (ERα heavy peptide) ([4]; Time 0.5) | % heavy (ERα heavy peptide) ([4]; Time 1) | % heavy (ERα heavy peptide) ([4]; Time 2) | % heavy (ERα heavy peptide) ([4]; Time 4) | % heavy (ERα heavy peptide) ([4]; Time 7) | % heavy (ERα heavy peptide) ([4]; Time 24) | % heavy (ERα heavy peptide) ([4]; Time 48) | ERa levels (% of vehicle control) ([5]; Hypoxic) | ERa levels (% of vehicle control) ([5]; Normoxic)
C[C@@H]1Cc2c([nH]c3ccccc23)[C@@H](c2c(F)cc(/C=C/C(=O)O)cc2F)N1CC(C)(C)F [AZD9496, (E)-3-(3,5-Difluoro-4-((1R,3R)-2-(2-fluoro-2-methylpropyl)-3-methyl-2,3,4,9-tetra hydro-1H-pyrido[3,4-b]indol-1-yl)phenyl)acrylic Acid, reference compound] | 5.08% and 7% | induced PR expression | 178.44% and 156.17% and 157.43% and 195.46% and 128.27% | low columnar uterine epithelium | – | – | – | – | – | – | – | – | – | – | – | –
C[C@]12CC[C@@H]3c4ccc(O)cc4C[C@@H](CCCCCCCCC[S+]([O-])CCCC(F)(F)C(F)(F)F)[C@H]3[C@@H]1CC[C@@H]2O (stereo partly shown) [fulvestrant, reference compound] | – | – | – | – | attenuated ERα degradation | had no effect | 100.0% | 39.1% and 49.6% and 42.4% | 29.7% and 37.1% and 33.5% | 20.8% and 29.3% and 28.1% | 10.9% and 15.5% and 18.5% | 5.3% and 6.8% and 7.7% | 4.3% and 6.1% | 4.6% and 6.1% and 3.9% | 5.829% | 10.860%

— PMC11091220, “Metabolism-driven in vitro/in vivo disconnect of an oral ERɑ VHL-PROTAC” (Communications Biology, 2024)
